Laboratory results taken from paper PMC6628712 (Journal of enzyme inhibition and medicinal chemistry, 2016).

Columns and labels:
CYP26A1 [1] = biological target: T1, CYP26A1 (Homo sapiens, UniProt O43174); assay: Inhibition of CYP26A1-catalyzed tazarotenic acid sulfoxide formation; assay type: biochemical
T1 sequence (O43174 1-497): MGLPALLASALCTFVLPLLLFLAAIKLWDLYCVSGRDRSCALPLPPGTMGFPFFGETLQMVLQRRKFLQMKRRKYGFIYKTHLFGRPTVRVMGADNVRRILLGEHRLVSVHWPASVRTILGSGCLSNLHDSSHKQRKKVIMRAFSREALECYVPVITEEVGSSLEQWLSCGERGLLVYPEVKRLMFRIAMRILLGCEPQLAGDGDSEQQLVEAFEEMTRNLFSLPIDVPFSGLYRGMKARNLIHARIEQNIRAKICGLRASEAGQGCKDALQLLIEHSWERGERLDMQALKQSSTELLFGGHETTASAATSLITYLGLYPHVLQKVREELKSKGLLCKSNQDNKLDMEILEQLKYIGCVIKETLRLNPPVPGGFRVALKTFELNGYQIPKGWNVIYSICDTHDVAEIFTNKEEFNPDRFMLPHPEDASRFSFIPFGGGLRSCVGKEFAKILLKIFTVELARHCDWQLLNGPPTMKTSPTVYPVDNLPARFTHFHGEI

CYP26B1 [2] = biological target: T2, CYP26B1 (Homo sapiens, UniProt Q9NR63); assay: Inhibition of CYP26B1-catalyzed tazarotenic acid sulfoxide formation; assay type: biochemical
T2 sequence (Q9NR63 1-512): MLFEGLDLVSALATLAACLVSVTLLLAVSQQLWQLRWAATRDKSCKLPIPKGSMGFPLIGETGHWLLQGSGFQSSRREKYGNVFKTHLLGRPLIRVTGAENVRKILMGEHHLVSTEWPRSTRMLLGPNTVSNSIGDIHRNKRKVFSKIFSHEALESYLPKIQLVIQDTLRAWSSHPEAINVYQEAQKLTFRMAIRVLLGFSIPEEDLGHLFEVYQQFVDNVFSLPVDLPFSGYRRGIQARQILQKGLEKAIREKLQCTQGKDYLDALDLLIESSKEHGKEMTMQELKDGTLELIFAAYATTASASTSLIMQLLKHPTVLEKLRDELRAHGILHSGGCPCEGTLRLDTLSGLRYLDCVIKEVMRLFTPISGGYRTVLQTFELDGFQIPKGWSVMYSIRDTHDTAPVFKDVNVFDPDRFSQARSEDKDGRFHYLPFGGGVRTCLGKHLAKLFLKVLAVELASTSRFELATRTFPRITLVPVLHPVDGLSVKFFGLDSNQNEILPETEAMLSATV

CYP26A1 [3] = biological target: T1, CYP26A1; assay: Spectral binding determination, CYP26A1
CYP26B1 [4] = biological target: T2, CYP26B1; assay: Spectral binding determination, CYP26B1
CYP2C8 [5] = biological target: T3, CYP2C8 (Homo sapiens, UniProt P10632); assay: Spectral binding determination, CYP2C8; conditions: UV-difference spectra
T3 sequence (P10632 1-490): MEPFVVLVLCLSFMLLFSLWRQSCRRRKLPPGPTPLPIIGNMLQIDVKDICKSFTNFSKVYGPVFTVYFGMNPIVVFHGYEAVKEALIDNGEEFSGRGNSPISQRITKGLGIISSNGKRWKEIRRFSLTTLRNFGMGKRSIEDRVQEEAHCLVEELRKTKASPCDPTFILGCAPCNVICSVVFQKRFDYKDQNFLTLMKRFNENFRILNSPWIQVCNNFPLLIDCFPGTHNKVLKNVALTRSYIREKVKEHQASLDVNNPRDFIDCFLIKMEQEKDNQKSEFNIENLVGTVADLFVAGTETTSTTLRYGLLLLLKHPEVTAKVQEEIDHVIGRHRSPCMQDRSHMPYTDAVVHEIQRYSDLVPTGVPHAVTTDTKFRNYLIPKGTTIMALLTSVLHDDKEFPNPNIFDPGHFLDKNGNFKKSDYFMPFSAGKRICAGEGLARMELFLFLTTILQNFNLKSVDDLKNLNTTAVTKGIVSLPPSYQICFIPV

CYP2C8 [6] = assay: In vitro free fraction by rapid equilibrium dialysis; assay type: in vitro ADME; conditions: human, pH 7.4, fu (IC50 assay), CYP2C8, conditions of CYP2C8 IC50 assay
[7] = human, in vivo
[8] = following topical administration; ref [64]–[73]; cited from earlier work
[9] = unbound fraction in plasma; ref [64]–[73]; cited from earlier work
CYP26A1 [10] = conditions: in vitro; ref [97]; cited from earlier work

IC50 (CYP26A1 [1]; CYP26A1 IC50, probe tazarotenic acid): 24.7 ± 8.1 nM | IC50 (CYP26A1 [1]; CYP26A1 IC50, tazarotenic acid, recombinant CYP26A1, probe tazarotenic acid sulfoxide formation, ± standard error): 20 ± 10 nM | IC50 (CYP26A1 [1]; IC50,unb CYP26A1, IC50 corrected for unbound fraction in the assay): 16.3 nM | IC50 (CYP26B1 [2]; CYP26B1 IC50, probe tazarotenic acid): 50.1 ± 12.1 nM | IC50 (CYP26B1 [2]; CYP26B1 IC50, tazarotenic acid, recombinant CYP26B1, probe tazarotenic acid sulfoxide formation, ± standard error): 50 ± 10 nM | IC50 (CYP26B1 [2]; IC50,unb CYP26B1, IC50 corrected for unbound fraction in the assay): 21.5 nM | Kd (CYP26A1 [3]; Ks (spectral binding constant), CYP26A1, 500 nM protein, ± standard error): 533 ± 71.8 nM | Kd (CYP26A1 [3]; Ks,unb CYP26A1, Ks corrected for nonspecific binding): 13.3 nM | Binding mechanism, CYP26A1 (CYP26A1 [3]; UV-difference spectra): Type II | Kd (CYP26B1 [4]; Ks (spectral binding constant), CYP26B1, 500 nM protein, ± standard error): 4950 ± 640 nM | Kd (CYP26B1 [4]; Ks,unb CYP26B1, Ks corrected for nonspecific binding): 24.7 nM | Binding mechanism, CYP26B1 (CYP26B1 [4]; UV-difference spectra): Type II | Binding mechanism, CYP2C8 (CYP2C8 [5]): Type II | fraction unbound at 12 h, 1 μM (CYP2C8 [6]): 0.155 ± 0.024 | Cmax,u (skin) [7]: 6.73 µM
SMILES: Clc1ccccc1C(c1ccccc1)(c1ccccc1)n1ccnc1 [Clotrimazole]
Total skin concentration [8]: 67.3 µM | fu,plasma [9]: 0.100 | Inhibition of CYP26A1-catalyzed 4-hydroxyretinoic acid formation (CYP26A1 [10]): not be inhibitors
